Patent US20110039721A1, “METHOD FOR PREDICTION ABOUT CARCINOGENICITY OF SUBSTANCE IN RODENT” (Chemicals Evaluation and Research Institute, priority 2007, published 2011)

What was measured:
[1] = classification of the substance (M+/M−); cited from earlier work
[2] = test system: rodent; details: classification of the substance (C+/C−); cited from earlier work
[3] = test system: mRNA expressed from the genes (A) to (D) in rat liver; experiment: Behavior of genes (mRNA expression level, oligo-DNA microarray) in rat liver after 28-day oral administration; type: in vivo; details: for Behavior of gene caused by administration of chemical substance, Gene No. 4846 / Behavior of gene caused by administration of chemical substance, Gene No. 2026 / Behavior of gene caused by administration of chemical substance, Gene No. 4218 / Behavior of gene caused by administration of chemical substance, Gene No. 6182 / Behavior of gene caused by administration of chemical substance, Gene No. 5600: gene group (A); for Behavior of gene caused by administration of chemical substance, Gene No. 4846: Unigene No. Rn.144554; for Behavior of gene caused by administration of chemical substance, Gene No. 2026 / Behavior of gene caused by administration of chemical substance, Gene No. 4218: Unigene No. Rn.167075; for Behavior of gene caused by administration of chemical substance, Gene No. 6182: Unigene No. Rn.5834; for Behavior of gene caused by administration of chemical substance, Gene No. 5600: Unigene No. Rn.9836; for Behavior of gene caused by administration of chemical substance, Gene No. 1494 / Behavior of gene caused by administration of chemical substance, Gene No. 2045 / Behavior of gene caused by administration of chemical substance, Gene No. 2203: gene group (B); for Behavior of gene caused by administration of chemical substance, Gene No. 1494: Unigene No. Rn.1430; for Behavior of gene caused by administration of chemical substance, Gene No. 2045: Unigene No. Rn.19329; for Behavior of gene caused by administration of chemical substance, Gene No. 2203: Unigene No. Rn.21240; for Behavior of gene caused by administration of chemical substance, Gene No. 533 / Behavior of gene caused by administration of chemical substance, Gene No. 725 / Behavior of gene caused by administration of chemical substance, Gene No. 1163 / Behavior of gene caused by administration of chemical substance, Gene No. 4973 / Behavior of gene caused by administration of chemical substance, Gene No. 4095 / Behavior of gene caused by administration of chemical substance, Gene No. 1334 / Behavior of gene caused by administration of chemical substance, Gene No. 6620 / Behavior of gene caused by administration of chemical substance, Gene No. 6303 / Behavior of gene caused by administration of chemical substance, Gene No. 5878 / Behavior of gene caused by administration of chemical substance, Gene No. 1131 / Behavior of gene caused by administration of chemical substance, Gene No. 1562 / Behavior of gene caused by administration of chemical substance, Gene No. 1741 / Behavior of gene caused by administration of chemical substance, Gene No. 893 / Behavior of gene caused by administration of chemical substance, Gene No. 6026 / Behavior of gene caused by administration of chemical substance, Gene No. 154 / Behavior of gene caused by administration of chemical substance, Gene No. 1993 / Behavior of gene caused by administration of chemical substance, Gene No. 813 / Behavior of gene caused by administration of chemical substance, Gene No. 2494 / Behavior of gene caused by administration of chemical substance, Gene No. 2546 / Behavior of gene caused by administration of chemical substance, Gene No. 3776 / Behavior of gene caused by administration of chemical substance, Gene No. 3929 / Behavior of gene caused by administration of chemical substance, Gene No. 1119 / Behavior of gene caused by administration of chemical substance, Gene No. 6742 / Behavior of gene caused by administration of chemical substance, Gene No. 5634: gene group (C); for Behavior of gene caused by administration of chemical substance, Gene No. 533: Unigene No. Rn.106184; for Behavior of gene caused by administration of chemical substance, Gene No. 725: Unigene No. Rn.108075; for Behavior of gene caused by administration of chemical substance, Gene No. 1163: Unigene No. Rn.11766; for Behavior of gene caused by administration of chemical substance, Gene No. 4973: Unigene No. Rn.118529; for Behavior of gene caused by administration of chemical substance, Gene No. 4095: Unigene No. Rn.119024; for Behavior of gene caused by administration of chemical substance, Gene No. 1334 / Behavior of gene caused by administration of chemical substance, Gene No. 6620: Unigene No. Rn.120914; for Behavior of gene caused by administration of chemical substance, Gene No. 6303: Unigene No. Rn.123063; for Behavior of gene caused by administration of chemical substance, Gene No. 5878: Unigene No. Rn.143213; for Behavior of gene caused by administration of chemical substance, Gene No. 1131: Unigene No. Rn.144946; for Behavior of gene caused by administration of chemical substance, Gene No. 1562: Unigene No. Rn.14744; for Behavior of gene caused by administration of chemical substance, Gene No. 1741: Unigene No. Rn.1647; for Behavior of gene caused by administration of chemical substance, Gene No. 893: Unigene No. Rn.164817; for Behavior of gene caused by administration of chemical substance, Gene No. 6026: Unigene No. Rn.167685; for Behavior of gene caused by administration of chemical substance, Gene No. 154: Unigene No. Rn.185941; for Behavior of gene caused by administration of chemical substance, Gene No. 1993: Unigene No. Rn.18728; for Behavior of gene caused by administration of chemical substance, Gene No. 813: Unigene No. Rn.201760; for Behavior of gene caused by administration of chemical substance, Gene No. 2494: Unigene No. Rn.23969; for Behavior of gene caused by administration of chemical substance, Gene No. 2546: Unigene No. Rn.24561; for Behavior of gene caused by administration of chemical substance, Gene No. 3776: Unigene No. Rn.43232; for Behavior of gene caused by administration of chemical substance, Gene No. 3929: Unigene No. Rn.4620; for Behavior of gene caused by administration of chemical substance, Gene No. 1119: Unigene No. Rn.9757; for Behavior of gene caused by administration of chemical substance, Gene No. 6742: Unigene No. Rn.9779; for Behavior of gene caused by administration of chemical substance, Gene No. 5634: Unigene No. Rn.9862; for Behavior of gene caused by administration of chemical substance, Gene No. 5726: gene group (D), Unigene No. Rn.9939
How it was run: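 Oral gavage, once daily × 28 days; male F344 SPF rats, 5 wk, n=4/group; vehicle controls given equal solvent volume. Liver excised day 28, total RNA purified. Significance: ≥1.5× or ≤1/1.5 of vehicle, direction concordant with other carcinogens.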

[4] = test system: liver; details: classification of the substance (Cr+/Cr−); cited from earlier work

CC1CCC(C(C)C)C(O)C1 (racemic) [TS034, DL-Menthol]
Mutagenicity by Ames test [1]: M−
Carcinogenicity [2]: C−
Behavior of gene caused by administration of chemical substance, Gene No. 4846 [3]: −
Behavior of gene caused by administration of chemical substance, Gene No. 2026 [3]: +
Behavior of gene caused by administration of chemical substance, Gene No. 4218 [3]: −
Behavior of gene caused by administration of chemical substance, Gene No. 6182 [3]: −
Behavior of gene caused by administration of chemical substance, Gene No. 5600 [3]: −
Behavior of gene caused by administration of chemical substance, Gene No. 1494 [3]: +
Behavior of gene caused by administration of chemical substance, Gene No. 2045 [3]: +
Behavior of gene caused by administration of chemical substance, Gene No. 2203 [3]: +
Behavior of gene caused by administration of chemical substance, Gene No. 533 [3]: +
Behavior of gene caused by administration of chemical substance, Gene No. 725 [3]: −
Behavior of gene caused by administration of chemical substance, Gene No. 1163 [3]: −
Behavior of gene caused by administration of chemical substance, Gene No. 4973 [3]: −
Behavior of gene caused by administration of chemical substance, Gene No. 4095 [3]: −
Behavior of gene caused by administration of chemical substance, Gene No. 1334 [3]: −
Behavior of gene caused by administration of chemical substance, Gene No. 6620 [3]: −
Behavior of gene caused by administration of chemical substance, Gene No. 6303 [3]: +
Behavior of gene caused by administration of chemical substance, Gene No. 5878 [3]: −
Behavior of gene caused by administration of chemical substance, Gene No. 1131 [3]: −
Behavior of gene caused by administration of chemical substance, Gene No. 1562 [3]: −
Behavior of gene caused by administration of chemical substance, Gene No. 1741 [3]: −
Behavior of gene caused by administration of chemical substance, Gene No. 893 [3]: −
Behavior of gene caused by administration of chemical substance, Gene No. 6026 [3]: −
Behavior of gene caused by administration of chemical substance, Gene No. 154 [3]: +
Behavior of gene caused by administration of chemical substance, Gene No. 1993 [3]: −
Behavior of gene caused by administration of chemical substance, Gene No. 813 [3]: −
Behavior of gene caused by administration of chemical substance, Gene No. 2494 [3]: −
Behavior of gene caused by administration of chemical substance, Gene No. 2546 [3]: −
Behavior of gene caused by administration of chemical substance, Gene No. 3776 [3]: −
Behavior of gene caused by administration of chemical substance, Gene No. 3929 [3]: −
Behavior of gene caused by administration of chemical substance, Gene No. 1119 [3]: −
Behavior of gene caused by administration of chemical substance, Gene No. 6742 [3]: −
Behavior of gene caused by administration of chemical substance, Gene No. 5634 [3]: −
Behavior of gene caused by administration of chemical substance, Gene No. 5726 [3]: −
Liver carcinogenicity [4]: Cr−

CCC1(c2ccccc2)C(=O)NC(=O)NC1=O [TS008, Phenobarbital]
Mutagenicity by Ames test [1]: M−
Behavior of gene caused by administration of chemical substance, Gene No. 4846 ([3]; mRNA vs vehicle control group): +
Behavior of gene caused by administration of chemical substance, Gene No. 2026 ([3]; mRNA vs vehicle control group): −
Behavior of gene caused by administration of chemical substance, Gene No. 4218 ([3]; mRNA vs vehicle control group): −
Behavior of gene caused by administration of chemical substance, Gene No. 6182 ([3]; mRNA vs vehicle control group): −
Behavior of gene caused by administration of chemical substance, Gene No. 5600 ([3]; mRNA vs vehicle control group): −
Behavior of gene caused by administration of chemical substance, Gene No. 1494 ([3]; mRNA vs vehicle control group): +
Behavior of gene caused by administration of chemical substance, Gene No. 2045 ([3]; mRNA vs vehicle control group): −
Behavior of gene caused by administration of chemical substance, Gene No. 2203 ([3]; mRNA vs vehicle control group): −
Behavior of gene caused by administration of chemical substance, Gene No. 533 ([3]; mRNA vs vehicle control group): +
Behavior of gene caused by administration of chemical substance, Gene No. 725 ([3]; mRNA vs vehicle control group): +
Behavior of gene caused by administration of chemical substance, Gene No. 1163 ([3]; mRNA vs vehicle control group): −
Behavior of gene caused by administration of chemical substance, Gene No. 4973 ([3]; mRNA vs vehicle control group): +
Behavior of gene caused by administration of chemical substance, Gene No. 4095 ([3]; mRNA vs vehicle control group): +
Behavior of gene caused by administration of chemical substance, Gene No. 1334 ([3]; mRNA vs vehicle control group): +
Behavior of gene caused by administration of chemical substance, Gene No. 6620 ([3]; mRNA vs vehicle control group): +
Behavior of gene caused by administration of chemical substance, Gene No. 6303 ([3]; mRNA vs vehicle control group): +
Behavior of gene caused by administration of chemical substance, Gene No. 5878 ([3]; mRNA vs vehicle control group): −
Behavior of gene caused by administration of chemical substance, Gene No. 1131 ([3]; mRNA vs vehicle control group): −
Behavior of gene caused by administration of chemical substance, Gene No. 1562 ([3]; mRNA vs vehicle control group): +
Behavior of gene caused by administration of chemical substance, Gene No. 1741 ([3]; mRNA vs vehicle control group): +
Behavior of gene caused by administration of chemical substance, Gene No. 893 ([3]; mRNA vs vehicle control group): +
Behavior of gene caused by administration of chemical substance, Gene No. 6026 ([3]; mRNA vs vehicle control group): +
Behavior of gene caused by administration of chemical substance, Gene No. 154 ([3]; mRNA vs vehicle control group): +
Behavior of gene caused by administration of chemical substance, Gene No. 1993 ([3]; mRNA vs vehicle control group): +
Behavior of gene caused by administration of chemical substance, Gene No. 813 ([3]; mRNA vs vehicle control group): +
Behavior of gene caused by administration of chemical substance, Gene No. 2494 ([3]; mRNA vs vehicle control group): +
Behavior of gene caused by administration of chemical substance, Gene No. 2546 ([3]; mRNA vs vehicle control group): +
Behavior of gene caused by administration of chemical substance, Gene No. 3776 ([3]; mRNA vs vehicle control group): −
Behavior of gene caused by administration of chemical substance, Gene No. 3929 ([3]; mRNA vs vehicle control group): +
Behavior of gene caused by administration of chemical substance, Gene No. 1119 ([3]; mRNA vs vehicle control group): +
Behavior of gene caused by administration of chemical substance, Gene No. 6742 ([3]; mRNA vs vehicle control group): +
Behavior of gene caused by administration of chemical substance, Gene No. 5634 ([3]; mRNA vs vehicle control group): +
Behavior of gene caused by administration of chemical substance, Gene No. 5726 ([3]; mRNA vs vehicle control group): −
